Experimental data taken from publication PMC11995724, “Antibiotic target discovery by integrated phenotypic and activity-based profiling of electrophilic fragments” (Cell chemical biology, 2025).

Assay: in vitro
Conditions: human, hek293t cells

SMILES	viability at 48 h, 25 µM
Cc1cc(C(=O)CCl)c(C)n1Cc1ccc(F)cc1 [10-N17, 2-chloro-1-{1-[(4-fluorophenyl)methyl]-2,5-dimethyl-1H-pyrrol-3-yl}ethan-1-one]	6.45%
C=CC(=O)N1CCC(C(=O)NC2CCCc3nc(C)ncc32)CC1 (centres unmarked) [3-I17, N-(2-methyl-5,6,7,8-tetrahydroquinazolin-5-yl)-1-(prop-2-enoyl)piperidine-4-carboxamide]	32%
Cc1ccc(N2CCN(C(=O)C(C)Cl)CC2=O)o1 (centres unmarked) [7-A16, 4-(2-chloropropanoyl)-1-(5-methylfuran-2-yl)piperazin-2-one]	74.7%
Cc1cc(C)c(NC(=O)C(C#N)=Cc2ccc(C(C)(C)C)cc2)c(C)c1 [8-I13, 3-(4-tert-butylphenyl)-2-cyano-N-(2,4,6-trimethylphenyl)prop-2-enamide]	9.25%
CCOc1ccc(S(=O)(=O)N2CCN(C(=O)CCl)CC2)cc1 [4-P15, 2-chloro-1-[4-(4-ethoxybenzenesulfonyl)piperazin-1-yl]ethan-1-one]	0.587%
CC(Cl)C(=O)Nc1cccc2ccccc12 (centres unmarked) [5-N12, 2-chloro-N-(naphthalen-1-yl)propanamide]	99.8%
CCn1c(-c2ccccc2)c(C(=O)CCl)c2ccccc21 [10-E12, 2-chloro-1-(1-ethyl-2-phenyl-1H-indol-3-yl)ethan-1-one]	0.509%
CC(Cl)C(=O)Nc1cccc(C(F)(F)F)c1 (centres unmarked) [5-P14, 2-chloro-N-[3-(trifluoromethyl)phenyl]propanamide]	90.7%
O=C(CCl)Nc1nc2ccc([N+](=O)[O-])cc2s1 [4-H08, 2-chloro-N-(6-nitro-1,3-benzothiazol-2-yl)acetamide]	0.244%
Cc1ccoc1C=C(C#N)C(=O)NCCc1ccccc1 [9-N03, 2-cyano-3-(3-methylfuran-2-yl)-N-(2-phenylethyl)prop-2-enamide]	93.9%
Cc1ccc(C(=O)c2ccccc2)c(NC(=O)CCl)c1 [4-B19, N-(2-benzoyl-5-methylphenyl)-2-chloroacetamide]	0.105%
C=CC(=O)NCc1ccccc1-n1ccc(C)n1 [1-J19, N-{[2-(3-methyl-1H-pyrazol-1-yl)phenyl]methyl}prop-2-enamide]	126%
O=C(CCl)c1c(-c2ccc(F)cc2)[nH]c2ccccc12 [10-P04, 2-chloro-1-[2-(4-fluorophenyl)-1H-indol-3-yl]ethan-1-one]	4.16%
C=CC(=O)NCCN1CCOCC1C (centres unmarked) [2-I05, N-[2-(3-methylmorpholin-4-yl)ethyl]prop-2-enamide]	79.2%
CC(Cl)C(=O)N1CCCc2c1ccnc2N(C)C (centres unmarked) [6-D14, 2-chloro-1-[5-(dimethylamino)-1,2,3,4-tetrahydro-1,6-naphthyridin-1-yl]propan-1-one]	109%
C=CC(=O)N1CCN(C(=O)c2ccco2)CC1 [1-P11, 1-[4-(furan-2-carbonyl)piperazin-1-yl]prop-2-en-1-one]	88.3%
CC(Cl)C(=O)NC(C)c1ncn(C)n1 (centres unmarked) [6-P13, 2-chloro-N-[1-(1-methyl-1H-1,2,4-triazol-3-yl)ethyl]propanamide]	112%
CC(Cl)C(=O)N1CC(n2cc(C(N)=O)nn2)C1 (centres unmarked) [5-F21, 1-[1-(2-chloropropanoyl)azetidin-3-yl]-1H-1,2,3-triazole-4-carboxamide]	94.6%
Cc1cnc(-c2cccc(NC(=O)C(C#N)=Cc3ccco3)c2)o1 [9-M18, 2-cyano-3-(furan-2-yl)-N-[3-(5-methyl-1,3-oxazol-2-yl)phenyl]prop-2-enamide]	116%
CC(Cl)C(=O)N1CCC(c2nccn2C)C1 (centres unmarked) [6-F15, 2-chloro-1-[3-(1-methyl-1H-imidazol-2-yl)pyrrolidin-1-yl]propan-1-one]	98.6%
CCOC(=O)c1c(NC(=O)CCl)sc2c1CCCC2 [6-I11, ethyl 2-(2-chloroacetamido)-4,5,6,7-tetrahydro-1-benzothiophene-3-carboxylate]	44.9%
C=CC(=O)NCCCn1ccnc1C#N [2-N05, N-[3-(2-cyano-1H-imidazol-1-yl)propyl]prop-2-enamide]	76.3%
N#CC(=Cc1ccc([N+](=O)[O-])o1)C(=O)NCc1ccco1 [8-I17, 2-cyano-N-[(furan-2-yl)methyl]-3-(5-nitrofuran-2-yl)prop-2-enamide]	1.08%
C=CC(=O)N1CCC(C(=O)N2CCC[C@H]2c2ncn[nH]2)CC1 [2-D12, 1-{4-[(2S)-2-(1H-1,2,4-triazol-5-yl)pyrrolidine-1-carbonyl]piperidin-1-yl}prop-2-en-1-one]	81.3%
N#CC(=Cc1ccc(F)c(F)c1)C(=O)NC1CC1 [9-M06, 2-cyano-N-cyclopropyl-3-(3,4-difluorophenyl)prop-2-enamide]	109%
N#CC(=Cc1cccc(O)c1)C(=O)NCc1ccc(Cl)cc1 [8-P14, N-[(4-chlorophenyl)methyl]-2-cyano-3-(3-hydroxyphenyl)prop-2-enamide]	64.4%
O=C(Nc1cccc(-c2nnco2)c1)N1CCSSCC1 [10-P09, N-[3-(1,3,4-oxadiazol-2-yl)phenyl]-1,2,5-dithiazepane-5-carboxamide]	116%

SMILES	viability at 48 h, 25 µM
N#CC(=CC1=Cc2ccccc2OC1)C(=O)Nc1ccc(C(=O)O)cc1 [8-N08, 4-[3-(2H-chromen-3-yl)-2-cyanoprop-2-enamido]benzoic acid]	97.6%
C=CC(=O)NC1CCC(c2nc(CC)no2)CC1 (centres unmarked) [1-O08, N-[4-(3-ethyl-1,2,4-oxadiazol-5-yl)cyclohexyl]prop-2-enamide]	92.2%
C=CC(=O)N1CCCC(c2nn(C)cc2C(N)=O)C1 (centres unmarked) [1-D07, 1-methyl-3-[1-(prop-2-enoyl)piperidin-3-yl]-1H-pyrazole-4-carboxamide]	107%
CCC1SC(=C(C#N)C(N)=O)N(c2ccc(C)cc2)C1=O (centres unmarked) [8-J15, 2-cyano-2-[5-ethyl-3-(4-methylphenyl)-4-oxo-1,3-thiazolidin-2-ylidene]acetamide]	117%
C=CC(=O)NC(C)c1nc(C2CCCCC2)no1 (centres unmarked) [1-N17, N-[1-(3-cyclohexyl-1,2,4-oxadiazol-5-yl)ethyl]prop-2-enamide]	102%
N#CC(=Cc1ccco1)C(=O)Nc1cccc2ncccc12 [8-B20, 2-cyano-3-(furan-2-yl)-N-(quinolin-5-yl)prop-2-enamide]	85.9%
C=CC(=O)NCc1ccc(C(=O)N2CCC(C(C)(C)O)CC2)cc1 [2-J20, N-({4-[4-(2-hydroxypropan-2-yl)piperidine-1-carbonyl]phenyl}methyl)prop-2-enamide]	74.2%
C=CC(=O)N1CCC(C(=O)N2CCn3ccnc32)CC1 [2-I04, 1-(4-{1H,2H,3H-[1,3]diazolo[1,2-a]imidazole-1-carbonyl}piperidin-1-yl)prop-2-en-1-one]	99.3%
Cc1cc(C)c(C=C(C#N)C(=O)Nc2nccs2)cc1C [8-P21, 2-cyano-N-(1,3-thiazol-2-yl)-3-(2,4,5-trimethylphenyl)prop-2-enamide]	113%
O=C(CCl)NCC(c1ccccc1)c1c[nH]c2ccccc12 (centres unmarked) [6-C08, 2-chloro-N-[2-(1H-indol-3-yl)-2-phenylethyl]acetamide]	0.717%
C=CC(=O)N1CCC=C(c2cn(C(C)C)nn2)CC1 [3-D19, 1-{4-[1-(propan-2-yl)-1H-1,2,3-triazol-4-yl]-2,3,6,7-tetrahydro-1H-azepin-1-yl}prop-2-en-1-one]	78.1%
N#Cc1ccc(C(=O)CCl)cc1 [10-F10, 4-(2-chloroacetyl)benzonitrile]	49%
COc1cc(C=C(C#N)C(=O)Nc2c(C)cc(C)cc2C)cc(OC)c1 [8-A18, 2-cyano-3-(3,5-dimethoxyphenyl)-N-(2,4,6-trimethylphenyl)prop-2-enamide]	26.3%
CC(NC(=O)CCl)C(=O)N1CCCCC1C (centres unmarked) [5-M06, 2-chloro-N-[1-(2-methylpiperidin-1-yl)-1-oxopropan-2-yl]acetamide]	104%
CCn1cc(N2C(=O)C=CC2=O)cn1 [10-I21, 1-(1-ethyl-1H-pyrazol-4-yl)-2,5-dihydro-1H-pyrrole-2,5-dione]	38.5%
O=C(CCl)N1CCOCC1c1noc(-c2ccccc2)n1 (centres unmarked) [5-E10, 2-chloro-1-[3-(5-phenyl-1,2,4-oxadiazol-3-yl)morpholin-4-yl]ethan-1-one]	1.07%
Cn1cc(C=C(C#N)C(=O)N2CCCC2)c(-c2cc3ccccc3o2)n1 [9-D18, 3-[3-(1-benzofuran-2-yl)-1-methyl-1H-pyrazol-4-yl]-2-(pyrrolidine-1-carbonyl)prop-2-enenitrile]	106%
O=C(CCl)N1CCc2sccc2C1c1cccs1 (centres unmarked) [4-L20, 2-chloro-1-[4-(thiophen-2-yl)-4H,5H,6H,7H-thieno[3,2-c]pyridin-5-yl]ethan-1-one]	-0.242%
CC(Cl)C(=O)NCc1ccon1 (centres unmarked) [7-I13, 2-chloro-N-[(1,2-oxazol-3-yl)methyl]propanamide]	94.7%
CCS(=O)(=O)c1ccc(NC(=O)CCl)c(O)c1 [4-P21, 2-chloro-N-[4-(ethanesulfonyl)-2-hydroxyphenyl]acetamide]	73.2%
CC(Cl)C(=O)NCc1cccs1 (centres unmarked) [4-P11, 2-chloro-N-[(thiophen-2-yl)methyl]propanamide]	68.4%
C=CC(=O)NCCC1CCCS1(=O)=O (centres unmarked) [3-C12, N-[2-(1,1-dioxo-1lambda6-thiolan-2-yl)ethyl]prop-2-enamide]	86.1%
CC(Cl)C(=O)Nc1ccccc1C#N (centres unmarked) [6-A11, 2-chloro-N-(2-cyanophenyl)propanamide]	97.2%
CC(Cl)C(=O)Nc1cccc(Cl)c1Cl (centres unmarked) [4-L13, 2-chloro-N-(2,3-dichlorophenyl)propanamide]	81.1%
C/C(O)=C(\C#N)C(=O)Nc1ccc(-c2ccccc2Cl)cc1 [9-P22, (2Z)-N-{2'-chloro-[1,1'-biphenyl]-4-yl}-2-cyano-3-hydroxybut-2-enamide]	107%
CC(C)NC(=O)C(C#N)=Cc1cccc(C(F)(F)F)c1 [9-J13, 2-cyano-N-(propan-2-yl)-3-[3-(trifluoromethyl)phenyl]prop-2-enamide]	33.9%
